Test results reported in US10017574B2, “Methods, kits and devices for promoting cardiac regeneration” (Yeda Research and Development Co. Ltd., priority 2015, dated 2018).
Entries after “also recorded” stand apart in the source; their conditions may differ.

Legend:
caErbb2 CMs [1] = experiment: Hypertrophy (cell area) of P7 caErbb2 CMs treated in vitro with inhibitors or factors; type: cell-based, mouse; conditions: P7 neonatal caErbb2 heart cells, treated in vitro for 2 days
Source text: (§1) Doxycycline inducible CM restricted overexpression of a constitutively active Erbb2 (caErbb2) was generated by crossing TetRE-caErbb2 mouse line^65 (a B6SJLF1/J transgenic line in which this mutated Erbb2 is placed under the control of a minimal CMV promoter and the tetracycline-responsive element) with αMHC-tTA^66, which expresses the tetracycline-responsive transcriptional activator (tTA) under the control of the human alpha myosin heavy chain promoter (αMHC) promoter (see FIG. 10A). αMHC-tTA strain was created in the FVB background and then the line was backcrossed to C57BL/6. Doxycycline (DOX, Harlan Laboratories) was administered in the food to repress transgene expression.
(§2) Primary cardiomyocytes were isolated from 1-day-old (P1) and 7-days-old (P7) mice using a neonatal dissociation kit (gentleMACS, Germany), according to the manufacturer's instructions, and cultured in gelatin-coated (0.1%, G1393, Sigma, St. Louis, Mo., USA) wells with DMEM/F12 medium supplemented with L-glutamine, Na-pyruvate, Non-essential amino acids, penicillin, streptomycin, 5% Horse serum and 10% FBS (hereafter referred to as “complete-medium”) at 37° C. and 5% CO2.
(§3) In cultures isolated from hearts of P7 ctrl and caErbb2-cOE animals, the cells were seeded in the aforementioned complete-medium for 48 hours, in the presence of the following substances: MEK/MAPKK kinase inhibitor regarded in the text as ERK inhibitor (2 μM, PD0325901, Tocris Bioscience, Bristol, UK), AKT1/2 inhibitor (5 μM, AKT inhibitor VIII, ApexBio, Houston, Tex., USA), GSK3β inhibitor (10 μM, CHIR-99021, Axon Medchem, Netherlands), β-Catenin inhibitor (10 μM, IWR-1, Sigma, St. Louis, Mo., USA), p38 inhibitor (10 μM SB202190, Merck Millipore, Massachusetts, USA), Periostin (500 ng/ml; BioVendor, Brno Czech Republic), FGF1 (100 ng/ml; R&D Systems, MN, USA). The dissolving reagents were added to unstimulated samples. Subsequently, cells were fixed in 4% PFA and stained for markers of interest.
(§4) Heart sections underwent deparaffinization, fixation in 4% PFA (5 minutes) and microwave antigen retrieval in EDTA or citric acid buffer, followed by gradual chilling. Then heart sections and cultured cells were processed in the following manner. Samples were permeabilized with 0.5% Triton X-100 in PBS for 5 minutes and blocked with 5% bovine serum albumin (BSA, Sigma, St. Louis, Mo., USA) in PBS containing 0.1% Triton for 1 hour at room temperature. Then samples were incubated 1 hour at room temperature or overnight at 4° C. with the following antibodies diluted in 3% BSA blocking solution: anti-Troponin T (1:200, ab33589, Abcam, Cambridge, Mass., USA), anti-Troponin I (1:200, ab47003, Abcam, Cambridge, Mass., USA) or anti-NKX2.5 (1:200, ab35842, Abeam, Cambridge, Mass., USA) Abs were used to identify CMs. Anti-Ki67 antibody (1:200, 275R, Cell Marque, Austin, Tex., USA) anti-BRDU antibody (1:100, G3G4, DSHB, Iowa City, Iowa, USA), anti-phosphorylated-Histone3 (pH3) antibody (1:200, SC-8656-R, Santa Cruz Biotechnology Inc., Santa Cruz, Calif., USA) and anti-Aurora B (1:100, 611082, BD Transduction Laboratories, Lexington, Ky., USA) were used to analyze cell cycle re-entry, DNA synthesis, karyokinesis and cytokinesis, respectively. Other Abs used in the study: anti-ErbB2 (1:50, sc-284, Santa Cruz Biotechnology Inc., Santa Cruz, Calif., USA), anti-αSMA (1:50, A5691, Sigma, St. Louis, Mo., USA), RUNX1 (1:200, ab92336, Abcam, Cambridge, Mass., USA), anti-DAB2 (1:200, sc-13982, Santa Cruz Biotechnology Inc., Santa Cruz, Calif., USA), anti-β-Catenin (1:200, ab32572, Abcam, Cambridge, Mass., USA). After three washes with PBS, 10 minutes each, samples were stained for 1 hour at room temperature or overnight at 4° C. with fluorescent secondary antibodies (Abeam, Cambridge, Mass., USA) followed by 10 minutes of DAPI (4,6-diamidino-2-phenylindole dihydrochloride) staining for nuclei visualization. […]

caErbb2 CMs [2] = experiment: Cell-cycle re-entry (Ki67) of P7 caErbb2 CMs treated in vitro with inhibitors or factors; type: cell-based, mouse; conditions: P7 neonatal caErbb2 heart cells, treated in vitro for 2 days
Source text: as §1, §2, §3, §4

caErbb2 CMs [3] = experiment: Dedifferentiation (RUNX1 expression, sarcomeric disassembly) of P7 caErbb2 CMs treated in vitro with inhibitors or factors; type: cell-based, mouse; conditions: P7 neonatal caErbb2 heart cells, treated in vitro for 2 days
Source text: as §1, §2, §3, §4

β-Catenin in caErbb2 CMs = experiment: β-Catenin immunofluorescence in P7 caErbb2 heart cells treated in vitro with inhibitors; type: cell-based, mouse; conditions: P7 neonatal caErbb2 heart cells, 10 μM
Source text: as §1
Primary cardiomyocytes were isolated from 1-day-old (P1) and 7-days-old (P7) mice using a neonatal dissociation kit (gentleMACS, Germany), according to the manufacturer's instructions, and cultured in gelatin-coated (0.1%, G1393, Sigma, St. Louis, Mo., USA) wells with DMEM/F12 medium supplemented with L-glutamine, Na-pyruvate, Non-essential amino acids, penicillin, streptomycin, 5% Horse serum and 10% FBS (hereafter referred to as “complete-medium”) at 37° C. and 5% CO2. […]

neonatal Erbb2-cKO CMs = experiment: NRG1-stimulated proliferation of cultured CMs from P1 Erbb2-cKO mice (Ki67, pH3, newly formed CMs); type: cell-based, mouse; conditions: CMs isolated from P1 Erbb2-cKO mice, NRG1 in vitro
Source text: CM-restricted deletion of Erbb2 (Erbb2-cKO) was generated by crossing Erbb2^flox/flox 41 to Erbb2^lacZ/+; αMHC-Cre mice (see FIG. 2A). The Erbb2^lacZ/+ mice used in this study carry an allele that encodes a nonfunctional ErbB2-galactosidase fusion protein lacking the tyrosine kinase domain^42. In some experiments, addition of ROSA26-tdTomato allele to this system has been used to label cardiac muscle cell lineage in Erbb2-cKO mice. Erbb2^flox/flox and Erbb2^lacZ/+ mice were maintained on a C57BL/6 background. […]
(§5) Heart sections underwent deparaffinization, fixation in 4% PFA (5 minutes) and microwave antigen retrieval in EDTA or citric acid buffer, followed by gradual chilling. […] Slides were mounted with Immu-mount (9990412, Thermo scientific, MA, USA) and viewed under a fluorescence microscope (Nikon Intensilight or Nikon eclipse 90i, Nikon, Düsseldorf, Germany) or spinning disk confocal microscope (Carl Zeiss, Thornwood, N.Y., USA) as specified in the figure legends.

P1 and P7 mouse CMs = experiment: NRG1-stimulated proliferation of cultured P1 and P7 cardiomyocytes (Ki67, BrdU, pH3, AuroraB immunofluorescence, counting newly formed CMs); type: cell-based; conditions: various NRG1 doses, 72 hours
Protocol: as §2
In experiments involving administration of Neuregulin-1b (NRG1, R&D Systems, MN, USA), the cells were allowed to adhere for 48 hours in complete-medium. Subsequently, the medium was replaced with an FBS-deprived complete-medium containing the indicated NRG1 doses for 72 hours. BrdU (10 μM, B5002, Sigma, St. Louis, Mo., USA) was introduced along with NRG1. Cells were fixed in 4% PFA and stained for markers of interest.
as §5

Molecule	caErbB2-induced hypertrophic response (CM cell area) (caErbb2 CMs [1])	caErbB2-induced CM proliferation / cell cycle re-entry (Ki67) (caErbb2 CMs [2])	RUNX1 expression in caErbb2 CMs (caErbb2 CMs [3])	β-Catenin accumulation in caErbb2 CMs (β-Catenin in caErbb2 CMs)	caErbB2-induced CM dedifferentiation (sarcomeric disassembly and RUNX1 expression) (caErbb2 CMs [3])	CM proliferation (Ki67, pH3, newly formed CMs) (neonatal Erbb2-cKO CMs)	CM proliferation (cell cycle activity, DNA synthesis, mitosis, cytokinesis, newly formed CMs) (P1 and P7 mouse CMs; P1 mouse CMs in vitro)	CM proliferation (cell cycle activity, DNA synthesis, mitosis, cytokinesis, newly formed CMs) (P1 and P7 mouse CMs; P7 mouse CMs in vitro)
O=C(Nc1cccc2cccnc12)c1ccc(N2C(=O)[C@@H]3[C@H](C2=O)[C@@H]2C=C[C@H]3C2)cc1 [β-Catenin inhibitor, IWR-1]	without significantly affecting	without significantly affecting	reduced					
Cc1c[nH]c(-c2cnc(NCCNc3ccc(C#N)cn3)nc2-c2ccc(Cl)cc2Cl)n1 [GSK3β inhibitor, CHIR-99021]		promoted β-Catenin independent increase in cell cycle activity	further increased	further increased				
FGF1	No obvious effects	enhanced	p38 inhibition, in contrast to FGF1 and Periostin, increased RUNX1 expression					
O=C(NOC[C@H](O)CO)c1ccc(F)c(F)c1Nc1ccc(I)cc1F [ERK inhibitor, PD0325901]	reduced the hypertrophic response	completely suppressed			completely suppressed			
Neuregulin-1b [NRG1]						unable to induce CM proliferation	dose-dependent increase	profoundly reduced effects; also recorded: diminished
Oc1ccc(-c2nc(-c3ccncc3)c(-c3ccc(F)cc3)[nH]2)cc1 [p38 inhibitor, SB202190]	No obvious effects	enhanced	increased					
O=c1[nH]c2ccccc2n1C1CCN(Cc2ccc(-c3nc4cc5[nH]cnc5cc4nc3-c3ccccc3)cc2)CC1 [AKT inhibitor, AKT inhibitor VIII]	reduced hypertrophic response	moderate effect			promoted massive dedifferentiation			
Periostin (protein, UniProt Q15063 22-836, looked up, Periostin protein (500 ng/ml; BioVendor)) Periostin: NNHYDKILAHSRIRGRDQGPNVCALQQILGTKKKYFSTCKNWYKKSICGQKTTVLYECCPGYMRMEGMKGCPAVLPIDHVYGTLGIVGATTTQRYSDASKLREEIEGKGSFTYFAPSNEAWDNLDSDIRRGLESNVNVELLNALHSHMINKRMLTKDLKNGMIIPSMYNNLGLFINHYPNGVVTVNCARIIHGNQIATNGVVHVIDRVLTQIGTSIQDFIEAEDDLSSFRAAAITSDILEALGRDGHFTLFAPTNEAFEKLPRGVLERIMGDKVASEALMKYHILNTLQCSESIMGGAVFETLEGNTIEIGCDGDSITVNGIKMVNKKDIVTNNGVIHLIDQVLIPDSAKQVIELAGKQQTTFTDLVAQLGLASALRPDGEYTLLAPVNNAFSDDTLSMDQRLLKLILQNHILKVKVGLNELYNGQILETIGGKQLRVFVYRTAVCIENSCMEKGSKQGRNGAIHIFREIIKPAEKSLHEKLKQDKRFSTFLSLLEAADLKELLTQPGDWTLFVPTNDAFKGMTSEEKEILIRDKNALQNIILYHLTPGVFIGKGFEPGVTNILKTTQGSKIFLKEVNDTLLVNELKSKESDIMTTNGVIHVVDKLLYPADTPVGNDQLLEILNKLIKYIQIKFVRGSTFKEIPVTVYTTKIITKVVEPKIKVIEGSLQPIIKTEGPTLTKVKIEGEPEFRLIKEGETITEVIHGEPIIKKYTKIIDGVPVEITEKETREERIITGPEIKYTRISTGGGETEETLKKLLQEEVTKVTKFIEGGDGHLFEDEEIKRLLQGDTPVRKLQANKKVQGSRRRLREGRSQ	No obvious effects	enhanced	p38 inhibition, in contrast to FGF1 and Periostin, increased RUNX1 expression					
